These are literature values, as cited in patent US20180147234A1, “COMPOSITIONS AND METHODS FOR TREATMENT OF FIBROMYALGIA” (Luitpold Pharmaceuticals, Inc., priority 2015, published 2018).

The conditions of the series: in vivo.

Take “polyglucose sorbitol carboxymethyl ether-coated non-stoichiometric magnetite [ferumoxytol]”: the Blood half-life was 10 to 14 h.
